According to US20020094522A1, “Means and methods for monitoring non-nucleoside reverse transcriptase inhibitor antiretroviral therapy and guiding therapeutic decisions in the treatment of HIV/AIDS” (priority 2000, published 2002):

Key:
[1] = tested on: RTV-302 (patient sample 97-302; K103N, P225H); experiment: Phenotypic susceptibility assay, RTV-302; assay type: cell-based, HIV-1; details: RTV-302, patient-derived
Protocol: Transfections were performed using a calcium-phosphate precipitation procedure. […] Cell lysates were assayed for luciferase activity (FIG. 3).
The drug inhibition curves are shown in (FIG. 3).
A resistance test vector was constructed as described in example 1 from a patient sample designated as 97-302. This patient had been treated with d4T, indinavir and DMP-266 for a period of approximately 10 months. Isolation of viral RNA and RT/PCR was used to generate a patient derived segment that comprised viral sequences coding for all of PR and aa 1-313 of RT. The patient derived segment was inserted into a indicator gene viral vector to generate a resistance test vector designated RTV-302. RTV-302 was tested using a phenotypic susceptibility assay to determine accurately and quantitatively the level of susceptibility to a panel of anti-retroviral drugs. […] An IC50 was determined for each drug tested. Susceptibility of the patient virus to each drug was examined and compared to known patterns of susceptibility.

[2] = tested on: Y181C-RTV (HIV reverse transcriptase Y181C); experiment: Phenotypic susceptibility assay, Y181C-RTV; assay type: cell-based, HIV-1
Source text: The resistance test vectors containing a functional luciferase gene cassette were constructed and host cells were transfected with the resistance test vector DNA. The resistant test vectors contained patient-derived reverse transcriptase and protease sequences that were either susceptible or resistant to the antiretroviral agents, such as nucleoside reverse transcriptase inhibitors, non-nucleoside reverse transcriptase inhibitors and protease inhibitors. The resistance test vector viral particles produced by transfecting the resistance test vector DNA into host cells, either in the presence or absence of protease inhibitors, were used to infect target host cells grown either in the absence of NRTI or NNRTI or in the presence of increasing concentrations of the drug. […] The IC50 values were determined by plotting percent drug inhibition vs. log10 drug concentration.
(§1) Host cells were seeded in 10-cm-diameter dishes and were transfected several days after plating with resistance test vector plasmid DNA and the envelope expression vector. […] HIV capsid protein (p24) levels in the harvested cell culture media were determined by an EIA method as described by the manufacturer (SIAC; Frederick, Md.). […] The inhibitory effect of the drug was determined using the following equation: […]

[3] = tested on: Y188H-RTV (HIV reverse transcriptase Y188H)
Source text: The resistance test vectors containing a functional luciferase gene cassette were constructed and host cells were transfected with the resistance test vector DNA. The resistant test vectors contained patient-derived reverse transcriptase and protease sequences that were either susceptible or resistant to the antiretroviral agents, such as nucleoside reverse transcriptase inhibitors, non-nucleoside reverse transcriptase inhibitors and protease inhibitors. The resistance test vector viral particles produced by transfecting the resistance test vector DNA into host cells, either in the presence or absence of protease inhibitors, were used to infect target host cells grown either in the absence of NRTI or NNRTI or in the presence of increasing concentrations of the drug. The amount of luciferase activity produced in infected target host cells in the presence of drug was compared to the amount of luciferase produced in infected target host cells in the absence of drug. Drug resistance was measured as the amount of drug required to inhibit by 50% the luciferase activity detected in the absence of drug (inhibitory concentration 50%, IC50). The IC50 values were determined by plotting percent drug inhibition vs. log10 drug concentration.
Host cells were seeded in 10-cm-diameter dishes and were transfected several days after plating with resistance test vector plasmid DNA and the envelope expression vector. Transfections were performed using a calcium-phosphate precipitation procedure. The cell culture media containing the DNA precipitate was replaced with fresh medium, from one to 24 hours, after transfection. Cell culture media containing resistance test vector viral particles was harvested one to four days after transfection and was passed through a […] filter before being stored at −80° C. HIV capsid protein (p24) levels in the harvested cell culture media were determined by an EIA method as described by the manufacturer (SIAC; Frederick, Md.). Before infection, target cells (293 and 293/T) were plated in cell culture media. Control infections were performed using cell culture media from mock transfections (no DNA) or transfections containing the resistance test vector plasmid DNA without the envelope expression plasmid. One to three or more days after infection the media was removed and cell lysis buffer (Promega) was added to each well. […] The inhibitory effect of the drug was determined using the following equation: […]
where RLUluc [drug] is the relative light unit of luciferase activity in infected cells in the presence of drug and RLUluc is the Relative Light Unit of luciferase activity in infected cells in the absence of drug. IC50 values were obtained from the sigmoidal curves that were generated from the data by plotting the percent inhibition of luciferase activity vs. the log10 drug concentration.

L100I-K103N-Y188L-RTV = experiment: Phenotypic susceptibility assay, L100I-K103N-Y188L-RTV; assay type: cell-based, HIV-1; details: site directed mutant
Protocol: (§2) The resistance test vectors containing a functional luciferase gene cassette were constructed and host cells were transfected with the resistance test vector DNA. The resistant test vectors contained patient-derived reverse transcriptase and protease sequences that were either susceptible or resistant to the antiretroviral agents, such as nucleoside reverse transcriptase inhibitors, non-nucleoside reverse transcriptase inhibitors and protease inhibitors. […] The IC50 values were determined by plotting percent drug inhibition vs. log10 drug concentration.
as §1
(§3) The mutations Y188L, L100I and K103N were introduced alone and in combinationn into resistance test vectors using the mega-primer method for site-directed mutagenesis (Sakar and Sommar, Ibid.). […] We determined the pattern of phenotypic susceptibility to the NNRTIs, delavirdine, nevlrapine and efavirenz, in all 6 vectors.

K103N-Y188L-RTV = experiment: Phenotypic susceptibility assay, K103N-Y188L-RTV; assay type: cell-based, HIV-1; details: site directed mutant
Protocol: as §2, §1, §3

[4] = tested on: Tyr181Cys (Y181C) mutation variant; details: Y181C variant selected during nevirapine monotherapy; cited from earlier work
L100I-K103N-RTV = experiment: Phenotypic susceptibility assay, L100I-K103N-RTV; assay type: cell-based, HIV-1; details: site directed mutant
Protocol: as §2, §1, §3

SMILES	change in susceptibility [1]	fold loss of susceptibility compared to wild type control RTV ([2]; Y181C-RTV, site directed mutant) [fold]	fold loss of susceptibility compared to wild type control RTV ([2]; {}) [fold]	fold loss of susceptibility compared to wild type control RTV [3] [fold]	fold loss of susceptibility compared to wild type control RTV (L100I-K103N-Y188L-RTV)	fold loss of susceptibility compared to wild type control RTV (K103N-Y188L-RTV)	reduction in sensitivity [4] [fold]	fold loss of susceptibility compared to wild type control RTV (L100I-K103N-RTV) [fold]
CC(C)Nc1cccnc1N1CCN(C(=O)c2cc3cc(NS(C)(=O)=O)ccc3[nH]2)CC1 [delavirdine]	modest decrease in delavirdine susceptibility							
O=C1Nc2ccc(Cl)cc2[C@@](C#CC2CC2)(C(F)(F)F)O1 [efavirenz]		4	3					
Cc1ccnc2c1NC(=O)c1cccnc1N2C1CC1 [nevirapine]	significant decrease in nevirapine susceptibility			3.5	greater than 800 fold	greater than 800 fold	100	70
